Laboratory results reported in US20050202032A1, “Use of neglected target tissue antigens in modulation of immune responses” (The Regents of the University of California, priority 1998, published 2005).

Key:
[1] = test system: splenic T cells of NOD mice; assay: T cell proliferation: immunogenicity and spontaneous recall responses to candidate NTTA peptides (Example 4); format: cell-based; settings: peptide used as the immunizant; FIG. 4
Experimental: T-cell proliferation assays. Female NOD mice were injected i.p. at 8 weeks of age with 100 μg antigen, or control β-galactosidase, in 100 μl of 50% IFA. The mice were reinjected 2 weeks later. At 12 weeks of age, splenic T-cells were tested for proliferative responses to GAD65, hsp277, β-galactosidase and the HEL peptide, as previously described.
Transgenic animal models have shown that neoantigens which are expressed at low levels in peripheral tissues often have little impact on T cell education and elicit strong immune responses after immunization (4-8). Identifying NTTAs that were specifically expressed in the β cells at low levels was therefore preferred. The DNA sequence banks were screened for cDNA sequences isolated from mouse β cell subtraction libraries. Mouse cDNA sequences were selected from both known and unknown β cell cDNAs and from both β-cell specific and ubiquitous antigens, some of which appeared to be expressed only at low levels specifically in β cells. Other cDNAs that were expressed at higher levels in the β cells, or in other tissues were selected by Northern analysis for comparison purposes. From the open reading frames of the candidate cDNAs we synthesized a dozen peptides which contained a consensus NOD class II MHC binding motif (54, 55). We identified 4 peptides (sequences provided above) from 3 different mouse B cell proteins that were immunogenic in NOD mice (FIG. 4).
The remaining peptides tested were peptide 1, a 15mer from calbindin having the sequence EEFMKTWRKYDTDHS; • peptide 3, also a 15mer from calbindin having the sequence LKDLCEKNKQELDIN; • peptide 5, a 15mer from clone 38 in turn derived from a beta cell specific cDNA library (Neophytou, P. et al Diabetes, 45:127, 1996) having the sequence ILKMDHHCPWVNNCV; and • peptide 8 from islet amyloid polypeptide having the sequence GKRNAAGDPNRESLDFL.
In addition, using a set of overlapping GAD peptides, two GAD peptides have been identified which are immunogenic in NOD mice (GADp18 and GADp27; sequences provided under ANTIGENS, above) but which are ignored by their spontaneous autoimmune responses (data not shown). […] These conclusions can be used to advantage for the development of human NTTAs as immunotherapeutics for autoimmune disease, and other abnormal inflammatory immune responses.

[2] = test system: splenic T cells of NOD mice; assay: as above; format: cell-based; settings: at any stage of NOD mouse development, no immunization
[3] = test system: antigen-specific T cells within islet infiltrates; assay: ELISPOT of single antigen-specific T cells from pancreatic islet infiltrates (Example 11); format: cell-based, NOD mice
Experimental: (§1) ELISPOT analysis. At a specified time, mice received a single i.p. injection of 100 μg β-galactosidase or GAD65 or other specified antigen in 50% IFA. Fourteen days later, splenic T-cells were isolated and the frequency of β-galactosidase and GAD65-specific T-cells secreting IL-4, IL-5 and IFN-γ was determined by using the ELISPOT technique as described (Forsthuber, T., et al., Science, 271:1728, 1996), with the exception that the treating antigen and β-galactosidase (100 μg/ml) were used as antigens, and 11B11 together with biotinylated BVD6-24G2 (PharMingen, San Diego, Calif.) was used for capture and detection of IL-4. The resulting spots were counted manually.
Monocytes were isolated from islets of 10-week old female NOD mice. 1000, 100 or 10 monocytes were mixed with 1 million irradiated splenic T cells and tested for IFNγ and IL-5 responses to B cell autoantigens, as well as control antigens, by ELISPOT.

[4] = test system: diabetic NOD mice with transplanted syngeneic islets; assay: Transplantation of syngeneic islets into diabetic NOD mice (Example 2); format: in vivo; settings: antigen i.p. in IFA to recipient diabetic NOD mice prior to transplantation; FIG. 1
Experimental: Transplantation of islets. Female NOD mice were monitored for the onset of IDDM, after which the mice were maintained on 1.0 to 1.5 units insulin (Humulin U, Lilly) per day. At the time of IDDM onset, mice were injected with either 100 μg of GAD65, hsp277, insulin B-chain or control β-galactosidase i.p. in 50% IFA. Ten days later, the mice were reinjected. Ten days after the second treatment, 3000 freshly isolated islets from newborn NOD mice were transplanted into the space beneath the kidney capsule, and Humulin administration was discontinued. The mice were reinjected every two weeks. Recurrence of diabetes is defined as two consecutive blood glucose levels of greater than 13 mmol/l.
Based on the ability of autoantigen treatment to inhibit disease in pre-diabetic NOD mice with (1) we tested whether this treatment could also protect transplanted syngeneic β cells from the established autoimmune responses in diabetic NOD mice. Islets were transplanted into diabetic NOD mice that had been treated with β-galactosidase. […] The results are shown in FIG. 1, wherein data are presented as time post-transplantation at which hyperglycemia recurred. These findings correlate with the extent to which each autoantigen was able to promote Th2 immunity in newly hyperglycemic animals (see Example 3, below).

[5] = test system: splenic T cells of treated NOD mice; assay: ELISPOT of Th1/Th2 responses after neonatal autoantigen treatment (Example 8); format: cell-based; settings: treated neonatally 100 μg i.p. in IFA, tested at 4 weeks in age; FIG. 10
Experimental: as §1
The data are represented as the mean number of spot forming colonies per million splenic T cells above background. The variation within, each group was <15%. Experimental and control mice were tested simultaneously (in triplicate) in two separate experiments (n=5/group).

NOD mice = settings: intraperitoneally in incomplete Freund's adjuvant early in the NOD mouse disease process (ref 1); cited from earlier work
female NOD mice = assay: IDDM incidence in NOD mice treated at six weeks (Example 6); format: in vivo; settings: 100 μg ip in IFA at six weeks, boosted once 10 days later; FIGS. 6 and 7
Experimental: IDDM incidence. At specified times, groups of 10 female NOD mice were injected i.p. with 50 μg antigen or control β-galactosidase in 100 μl of 50% IFA. Another control group received 100 μl of 50% IFA alone. Because there may be a requirement for continual antigen presentation, the mice were reinjected every 6 weeks until 40 weeks of age. Urine glucose levels were monitored weekly for diabetes by Tes-tape (Lilly, Indianapolis, Ind.). After we observed abnormal glucose in the urine, blood glucose levels were monitored twice weekly. A recording of two consecutive blood glucose levels of greater than 13 mmol/l was considered as IDDM onset.
Groups of six weeks old female NOD mice were treated with either the control MSA (MSA 560-574) peptide, or a peptide containing a βCAA target determinant (GADp35, GADp34, HSP 277 or insulin B-chain), or a NTTA peptide #2, 4, 6 or 7 (in each case 100 μg ip in IFA)). The mice were boosted once 10 days later. All mouse groups were injected concurrently and housed in the same SPF room. […] An average of 70% of the mice treated with a βCAA target determinant developed IDDM by 40 weeks in age. Two consecutive blood glucose levels of […] was considered disease onset. N=10 for each group.
An average of 40% of the NOD mice treated with different NTTAs developed IDDM by 40 weeks in age. […]

[6] = test system: irradiated young NOD mice receiving T cells from diabetic NOD mice; assay: Adoptive transfer of IDDM (Example 5); format: in vivo; settings: cells from treated mice co-transferred with T cells from diabetic NOD mice
Experimental: Adoptive transfer of diabetes. At a specified time, NOD mice were injected i.p. with 100 μg GAD65 (or other specified antigen) or control β-galactosidase in 100 μl of 50% IFA and reinjected at 14 weeks of age. Five weeks later, single-cell suspensions of splenic mononuclear cells were prepared from each group, as well as from unmanipulated diabetic NOD mice. Ten million splenic mononuclear cells from the unmanipulated diabetic mice were mixed with an equal number of splenic mononuclear cells from GAD65 β-galactosidase-treated mice and injected intravenously into 5-week-old female NOD mice that had received 500 rad-γ-irradiation. Another control group received […] splenic mononuclear cells obtained only from unmanipulated diabetic mice.
Splenic T cells from NTTA peptide treated mice were co-transferred with T cells from diabetic NOD mice into irradiated young NOD mice. All of the mice which received cells from mice treated with a control immunogenic mouse serum albumin peptide (MSA 560-574) developed IDDM within 5 weeks. […] Thus, NTTAs are capable of inducing adoptively transferable regulatory responses which can down-regulate pathogenic T cells.

[7] = test system: T cell clones from immunized NOD mice; assay: Cytokine secretion of NTTA- and GADp35-reactive T cell clones (Example 9); format: cell-based; settings: ELISPOT and antigen-stimulated culture supernatants
Experimental: NOD mice were immunized with a NTTA peptide or GADp35 in incomplete Freund's adjuvant (IFA). Two weeks later lymph node and splenic T cells were cultured with antigen, IL-2 and IL-4 together with irradiated NOD splenic cells and T cell clones were generated by limiting dilution. A NTTA 7 and a GADp35-reactive clone were characterized by ELISPOT and analysis of antigen-stimulated culture supernatants. Both clones secreted IL-4, and no IFN-γ in response to the corresponding antigen. Thus, these T cell clones appear to be Th2-type.

[8] = 100 islet monocytes mixed with 1 million irradiated splenic T cells
[9] = 1,000 islet monocytes mixed with 1 million irradiated splenic T cells, 10-week old female NOD mice

Molecule: EEFMKTWRKYDTDHS [peptide 1]
- immunogenicity in NOD mice (proliferative T cell response after immunization) [1]: did not contain determinants

Molecule: ELKNFLKDLLEKANKTVDDT (homo sapiens) [Peptide 2]
- immunogenicity in NOD mice (proliferative T cell response after immunization) [1]: immunogenic
- spontaneous proliferative splenic T cell recall responses [2]: did not detect

Molecule: GKRNAAGDPNRESLDFL [peptide 8, from islet amyloid polypeptide]
- immunogenicity in NOD mice (proliferative T cell response after immunization) [1]: did not contain determinants

Molecule: ILKMDHHCPWVNNCV [peptide 5, 15mer from clone 38]
- immunogenicity in NOD mice (proliferative T cell response after immunization) [1]: did not contain determinants

Molecule: Insulin B-chain [reference compound]
- IFNγ responses, number of T cells [3, 8]: 6
- IFNγ responses, number of T cells [3, 9]: 50
- syngeneic islet graft survival (recurrence of hyperglycemia) [4]: lacked any protective effect
- Th2 and Th1 responses to the injected autoantigen [5]: both Th2 and Th1 responses
- protection from IDDM (NOD mice): highly protective
- protection from disease / disease incidence (female NOD mice): non-significant trend toward protection

Molecule: LIKPDRCHHCSVCDKC (homo sapiens) [Peptide 4]
- immunogenicity in NOD mice (proliferative T cell response after immunization) [1]: immunogenic
- spontaneous proliferative splenic T cell recall responses [2]: did not detect

Molecule: LKDLCEKNKQELDIN [peptide 3]
- immunogenicity in NOD mice (proliferative T cell response after immunization) [1]: did not contain determinants

Molecule: MSA 560-574: control immunogenic mouse serum albumin peptide 560-574 (KPKATAEQLKTVMDD)
- time by which all recipient mice developed IDDM [6]: ≤ 5 weeks

Molecule: NHLRATPVRSGSNPQ (homo sapiens) [Peptide 6]
- immunogenicity in NOD mice (proliferative T cell response after immunization) [1]: immunogenic
- spontaneous proliferative splenic T cell recall responses [2]: did not detect

Molecule: PEVKEKGMAAVPRLIAFTSE (homo sapiens) [GADp18]
- immunogenicity in NOD mice (proliferative T cell response after immunization) [1]: immunogenic
- spontaneous proliferative splenic T cell recall responses [2]: ignored

Molecule: PLQCSALLVREEGLMQSCNQ (homo sapiens) [GADp27]
- immunogenicity in NOD mice (proliferative T cell response after immunization) [1]: immunogenic
- spontaneous proliferative splenic T cell recall responses [2]: ignored

Molecule: TQRLANFLVRSSNNL (homo sapiens) [Peptide 7]
- immunogenicity in NOD mice (proliferative T cell response after immunization) [1]: immunogenic
- IFN-γ secretion of reactive T cell clone in response to the corresponding antigen [7]: no
- IL-4 secretion of reactive T cell clone in response to the corresponding antigen [7]: secreted
- spontaneous proliferative splenic T cell recall responses [2]: did not detect

B1: GAD: Mouse GAD65, glutamic acid decarboxylase, β cell autoantigen (protein, UniProt P48320 1-585, looked up)
Glutamate decarboxylase 2: MASPGSGFWSFGSEDGSADPENPGTARAWCQVAQKFTGGIGNKLCALLYGDSGKPAEGGGSVTSRAATGKVACTCDQKPCNCPKGDVNYAFLHATDLLPACDGERPTLAFLQDVMNILLQYVVKSFDRSTKVIDFHYPNELLQEYNWELADQPQNLEEILTHCQTTLKYAIKTGHPRYFNQLSTGLDMVGLAADWLTSTANTNMFTYEIAPVFVLLEYVTLKKMREIIGWPGGSGDGIFSPGGAISNMYAMLIARYKMFPEVKEKGMAAVPRLIAFTSEHSHFSLKKGAAALGIGTDSVILIKCDERGKMIPSDLERRILEVKQKGFVPFLVSATAGTTVYGAFDPLLAVADICKKYKIWMHVDAAWGGGLLMSRKHKWKLSGVERANSVTWNPHKMMGVPLQCSALLVREEGLMQSCNQMHASYLFQQDKHYDLSYDTGDKALQCGRHVDVFKLWLMWRAKGTTGFEAHIDKCLELAEYLYTIIKNREGYEMVFDGKPQHTNVCFWFVPPSLRTLEDNEERMSRLSKVAPVIKARMMEYGTTMVSYQPLGDKVNFFRMVISNPAATHQDIDFLIEEIERLGQDL
- IFNγ responses, number of T cells [3, 8]: 15
- IFNγ responses, number of T cells [3, 9]: 123
- syngeneic islet graft survival (recurrence of hyperglycemia) [4]: greatly extended syngeneic islet graft survival
- Th2 and Th1 responses to the injected autoantigen [5]: both Th2 and Th1 responses
- protection from IDDM (NOD mice): highly protective
